Values quoted from earlier work as cited in PMC3918212 (Biopolymers, 2013).

Settings: PBS at 37 °C

## MATLEKLMKAFESLKSF [htt^NT]
  Aggregation behaviour on incubation: slow, concentration dependent conversion into an α-helix rich, sedimentable oligomer
